# According to patent US20250145585A1, “HETEROCYCLIC INHIBITORS OF IGF-1R FOR TREATMENT OF DISEASE” (HORIZON THERAPEUTICS IRELAND DAC, priority 2023, published 2025):
# Target: T1, IGF-1R (Homo sapiens, UniProt P08069)
# T1 construct: expressed in transfected cells
# Experiment: Example B-1: IGF-1R Assay (PC3 cells stimulated with IGF1, AlphaLISA on cell lysates)
# Assay type: cell-based
# Details: compound two hours, IGF1 200 ng/mL for 30 min, read-out: IC50, Biological Activity against IGF-1R (Table B1)
# Method: 50K PC3 cells were seeded on day 1 in 50 μL of media in 96-well plate and incubated overnight at 37° C., 5% CO2. On day 2, all cells were expected to be at 80-90% confluency. Cells were starved for two hours by changing the media to 90 μL of EMEM serum-free media and incubated for 2 hours. Next, cells were treated with 10 μL of 10× concentrated and 3× serially diluted compounds for two hours. It makes 1× of compounds in 100 μL media. This was followed by stimulation of cells with 11×IGF1 for 30 min in 10 μL of serum-free EMEM media at the final concentration of 200 ng/mL.
# The media was removed and replaced by 50 μL of 1× lysis buffer from the AlphaLISA kit (with 1× of cOmplete™ protease inhibitor). The plates were sealed, and cells were allowed to lyse for 10 min in the shaker before storing the plate at −20° C. until used. The AlphaLISA assay with processed cell lysates were performed as described in the protocol. Briefly, 10 μL of the undiluted sample were loaded to 384 well Optiplates and 5 μL of the acceptor mix (as described in the AlphaLISA kit) was added to each well. The plates were sealed and briefly vortexed followed by the incubation at RT for 3 hours. In the dark, 5 μL of donor mix was added to each well. All plates were sealed and stored at RT overnight. The plates were read in EnVision reader using standard AlphaLISA settings.
# Compound activity was analyzed using CBIS data analysis suite (Cheminnovation, CA). Percentage inhibition was calculated using the following formula: % I-hibition=100%×(1−(mea−RLU of test sample−mean RLU of vehicle control)/(mean-RLU of EC80 control−mean RLU of vehicle control)). The activity for representative examples of the invention is shown in the following table, wherein A: IC50≤500 nM; B: 500 nM<IC50≤2 μM; C: 2 μM<IC50≤10 μM; D: IC50>10 μM.
# T1 sequence (P08069 31-1367): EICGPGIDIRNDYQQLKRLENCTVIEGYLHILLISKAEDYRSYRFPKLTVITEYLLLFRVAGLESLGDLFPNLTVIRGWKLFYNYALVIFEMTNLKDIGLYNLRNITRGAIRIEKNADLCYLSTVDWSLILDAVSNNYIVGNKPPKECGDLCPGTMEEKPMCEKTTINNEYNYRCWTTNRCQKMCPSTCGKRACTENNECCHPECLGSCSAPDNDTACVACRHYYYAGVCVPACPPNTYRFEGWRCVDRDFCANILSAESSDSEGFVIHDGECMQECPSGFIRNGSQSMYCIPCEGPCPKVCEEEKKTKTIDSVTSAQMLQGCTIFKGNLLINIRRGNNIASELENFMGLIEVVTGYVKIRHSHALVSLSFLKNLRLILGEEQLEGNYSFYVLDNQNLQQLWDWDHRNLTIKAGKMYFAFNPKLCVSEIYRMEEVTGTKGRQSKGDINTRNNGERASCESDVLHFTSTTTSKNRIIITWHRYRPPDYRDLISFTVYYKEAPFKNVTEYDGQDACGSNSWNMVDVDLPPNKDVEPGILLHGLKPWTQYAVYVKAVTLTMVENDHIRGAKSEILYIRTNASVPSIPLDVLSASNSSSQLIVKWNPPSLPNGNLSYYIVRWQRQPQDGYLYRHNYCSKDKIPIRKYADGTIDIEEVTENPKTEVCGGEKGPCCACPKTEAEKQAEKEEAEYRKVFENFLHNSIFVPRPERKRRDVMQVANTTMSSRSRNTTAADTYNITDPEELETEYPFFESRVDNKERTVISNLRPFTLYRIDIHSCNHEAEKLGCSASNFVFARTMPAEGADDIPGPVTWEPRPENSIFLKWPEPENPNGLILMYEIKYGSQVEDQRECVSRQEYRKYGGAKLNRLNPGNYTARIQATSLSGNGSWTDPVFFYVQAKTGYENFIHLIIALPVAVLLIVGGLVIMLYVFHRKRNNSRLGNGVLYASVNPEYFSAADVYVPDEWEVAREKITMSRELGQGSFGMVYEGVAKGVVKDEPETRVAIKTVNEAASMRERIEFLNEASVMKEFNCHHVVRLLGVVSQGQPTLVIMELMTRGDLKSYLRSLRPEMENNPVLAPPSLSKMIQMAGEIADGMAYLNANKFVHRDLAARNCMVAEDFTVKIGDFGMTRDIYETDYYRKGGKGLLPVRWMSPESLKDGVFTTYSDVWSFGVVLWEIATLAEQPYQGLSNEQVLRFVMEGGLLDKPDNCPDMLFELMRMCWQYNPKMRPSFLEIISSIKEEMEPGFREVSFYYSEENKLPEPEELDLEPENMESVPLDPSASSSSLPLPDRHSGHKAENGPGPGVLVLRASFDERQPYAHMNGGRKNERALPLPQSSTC
row,SMILES,IC50 [nM]
1,"COC[C@@H](C)Nc1cc(CN2C(=O)N(c3ccc(C(C)(C)C)cc3)C(=O)C2(C)C)ccn1 [Compound 268, (R)-3-(4-(tert-butyl)phenyl)-1-((2-((1-methoxypropan-2-yl)amino)pyridin-4-yl)methyl)-5,5-dimethylimidazolidine-2,4-dione]",≤ 500
2,"Nc1cc(CN2C(=O)N(c3ccc(SC(F)(F)F)cc3)C(=O)C23CCC3)ccn1 [Compound 292, 5-((2-aminopyridin-4-yl)methyl)-7-(4-((trifluoromethyl)thio)phenyl)-5,7-diazaspiro[3.4]octane-6,8-dione]",500 to 2000
3,"CC1(C)C(=O)N(c2ccc(SC(F)(F)F)cc2)C(=O)N1Cc1ccnc2[nH]cnc12 [Compound 2, 1-((3H-imidazo[4,5-b]pyridin-7-yl)methyl)-5,5-dimethyl-3-(4-((trifluoromethyl)thio)phenyl)imidazolidine-2,4-dione]",≤ 500
4,"CC1(C)C(=O)N(c2ccc(SC(F)(F)F)cc2)C(=O)N1Cc1ccnc(NC(=O)NC23CCC(CC2)C3)c1 [Compound 304, 1-(bicyclo[2.2.1]heptan-1-yl)-3-(4-((5,5-dimethyl-2,4-dioxo-3-(4-((trifluoromethyl)thio)phenyl)imidazolidin-1-yl)methyl)pyridin-2-yl)urea]",500 to 2000
5,"CC1(C)C(=O)N(c2ccc(C3(CO)CC3)cc2)C(=O)N1Cc1ccnc(N)c1 [Compound 100, 1-((2-aminopyridin-4-yl)methyl)-3-(4-(1-(hydroxymethyl)cyclopropyl)phenyl)-5,5-dimethylimidazolidine-2,4-dione]",500 to 2000
6,"CC1(Nc2cc(CN3C(=O)N(c4ccc(C(C)(C)C)cc4)C(=O)C3(C)C)ccn2)CC1 [Compound 273, 3-(4-(tert-butyl)phenyl)-5,5-dimethyl-1-((2-((1-methylcyclopropyl)amino)pyridin-4-yl)methyl) imidazolidine-2,4-dione]",≤ 500
7,"CC1(C)C(=O)N(c2ccc3c(C(F)(F)F)n[nH]c3c2)C(=O)N1Cc1ccnc(N)c1 [Compound 254, 1-((2-aminopyridin-4-yl)methyl)-5,5-dimethyl-3-(3-(trifluoromethyl)-1H-indazol-6-yl)imidazolidine-2,4-dione]",500 to 2000
8,"Nc1cc(CN2C(=O)N(c3ccc(SC(F)(F)F)cc3)C(=O)C23CCCCC3)ccn1 [Compound 293, 1-((2-aminopyridin-4-yl)methyl)-3-(4-((trifluoromethyl)thio)phenyl)-1,3-diazaspiro[4.5]decane-2,4-dione]",2000 to 10000

# Next, values leading:
row,IC50 [nM],SMILES
1,≤ 500,"CC1(C)C(=O)N(c2ccc(SC(F)(F)F)cc2)C(=O)N1Cc1ccnc(NC(=O)Nc2ccncc2)c1 [Compound 398, 1-(4-((5,5-dimethyl-2,4-dioxo-3-(4-((trifluoromethyl)thio)phenyl)imidazolidin-1-yl)methyl)pyridin-2-yl)-3-(pyridin-4-yl)urea]"
2,≤ 500,"COc1ccc(NC(=O)Nc2cc(CN3C(=O)N(c4ccc(SC(F)(F)F)cc4)C(=O)C3(C)C)ccn2)cc1 [Compound 363, 1-(4-((5,5-dimethyl-2,4-dioxo-3-(4-((trifluoromethyl)thio)phenyl)imidazolidin-1-yl)methyl)pyridin-2-yl)-3-(4-methoxyphenyl)urea]"
3,≤ 500,"CC1(C)C(=O)N(c2ccc(SC(F)(F)F)cc2)C(=O)N1Cc1ccnc(NCC2CC2)c1 [Compound 311, 1-((2-((cyclopropylmethyl)amino)pyridin-4-yl)methyl)-5,5-dimethyl-3-(4-((trifluoromethyl)thio)phenyl) imidazolidine-2,4-dione]"
4,≤ 500,"CN1CCC(NC(=O)Nc2cc(CN3C(=O)N(c4ccc(SC(F)(F)F)cc4)C(=O)C3(C)C)ccn2)CC1 [Compound 309, 1-(4-((5,5-dimethyl-2,4-dioxo-3-(4-((trifluoromethyl)thio)phenyl)imidazolidin-1-yl)methyl)pyridin-2-yl)-3-(1-methylpiperidin-4-yl)urea]"
